Measured values published in patent publication US20060069132A1, “Azolecarboxamide herbicides” (priority 2004, published 2006).

Legend:
redroot pigweed = assay: Test A pre-/postemergence herbicide test; type: in vivo, Amaranthus retroflexus
How it was run: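 Seeds sown in sandy loam received a preemergence directed soil spray of compound in non-phytotoxic solvent with surfactant; postemergence plants (2–10 cm, one- to two-leaf stage) were sprayed to runoff at the same time. After ~10 days in greenhouse, injury was rated visually versus untreated controls (0 = no effect, 100 = complete control).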

pigweed = assay: Test C pre-/postemergence herbicide test; type: in vivo, Amaranthus retroflexus; conditions: preemergence
How it was run: (§1)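 Seeds were planted and sprayed preemergence with test chemicals in a non-phytotoxic solvent mixture containing surfactant; postemergence treatments went onto plants 2 to 18 cm tall (1- to 4-leaf stage). After 12 to 14 days in a greenhouse, injury was rated visually against untreated controls on a 0–100 scale.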

morningglory = assay: Test C pre-/postemergence herbicide test; type: in vivo, Ipomoea coccinea; design: key to Plant response rating, Morningglory: 0 = no effect, 100 = complete control; conditions: preemergence
How it was run: as §1

bermudagrass = assay: Test C pre-/postemergence herbicide test; type: in vivo, Cynodon dactylon
How it was run: as §1

barnyardgrass = assay: Test B pre-/postemergence herbicide test; type: in vivo, Echinochloa crus-galli; conditions: for Barnyardgrass plant response rating: postemergence
How it was run: (§2)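 Formulation: non-phytotoxic solvent mix with surfactant. Timing: preemergence on seed and postemergence on 2–18 cm plants, applied concurrently. Readout after 13–15 d greenhouse: visual 0–100 control rating against controls.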

cocklebur = assay: Test B pre-/postemergence herbicide test; type: in vivo, Xanthium strumarium; conditions: for Cocklebur plant response rating: postemergence
How it was run: as §2

Surinam grass = assay: Test C pre-/postemergence herbicide test; type: in vivo, Urochloa decumbens; conditions: preemergence
How it was run: as §1

[1] = Postemergence, 500 g ai/ha, 0 to 100 scale, 0 no effect, 100 complete control
[2] = Postemergence, 2000 g ai/ha, 0 to 100 scale, 0 no effect, 100 complete control
[3] = Preemergence, 2000 g ai/ha, visual rating, 0 to 100 scale (0 no effect, 100 complete control)
[4] = preemergence, 500 g ai/ha, visual injury, 0 to 100 scale (0 no effect, 100 complete control)
[5] = 125 g ai/ha, scale 0 (no effect) to 100 (complete control), visual, 12 to 14 days
[6] = 62 g ai/ha, preemergence, scale 0 to 100, 0 no effect, 100 complete control
[7] = 125 g ai/ha, scale 0 (no effect) to 100 (complete control), visual, 12 to 14 days, preemergence
[8] = 250 g ai/ha, scale 0-100, preemergence
[9] = 125 g ai/ha, 0 = no effect, 100 = complete control, preemergence
[10] = 125 g ai/ha, visual rating, scale 0 (no effect) to 100 (complete control)
[11] = 500 g ai/ha, visual rating, 0 = no effect, 100 = complete control, preemergence
[12] = 500 g ai/ha, scale 0 to 100, 0 is no effect, 100 is complete control
[13] = 500 g ai/ha, scale 0 to 100 (0 no effect, 100 complete control), visual, 12 to 14 days
[14] = 125 g ai/ha, 0 is no effect, 100 is complete control, preemergence

Compound | Pigweed plant response rating (redroot pigweed; [1]) | Plant response rating, Pigweed (redroot pigweed; [2]) | Pigweed plant response rating (redroot pigweed; [3]) | Pigweed plant response rating (redroot pigweed; [4]) | Plant response rating, Pigweed (pigweed; 62 g ai/ha, scale 0 to 100) | Plant response rating, Pigweed (pigweed; [5]) | Plant response rating, Pigweed (pigweed; 250 g ai/ha, scale 0-100) | Plant response rating, Morningglory (morningglory; 62 g ai/ha, scale 0 to 100) | Plant response rating, Morningglory (morningglory; [5]) | Plant response rating, Morningglory (morningglory; 250 g ai/ha, scale 0-100) | Plant response rating, Bermudagrass (bermudagrass; [6]) | Plant response rating, Bermudagrass (bermudagrass; [7]) | Plant response rating, Bermudagrass (bermudagrass; [8]) | Barnyardgrass plant response rating (barnyardgrass; [10]) | Plant response rating, Barnyardgrass (barnyardgrass; [11]) | Barnyardgrass plant response rating (barnyardgrass; [12]) | Cocklebur plant response rating (cocklebur; [10]) | Plant response rating, Cocklebur (cocklebur; [11]) | Cocklebur plant response rating (cocklebur; [12]) | Plant response rating, Surinam Grass (Surinam grass; 62 g ai/ha, scale 0 to 100) | other results
CCNC(=O)c1ccc(F)c(NC(=O)c2cc(C3(C)CC3)nn2CC)c1 [Compound 300] | 90 | 100 | 100 | 95 | 100 | 100 | 100 | 5 | 40 | 40 | 95 | 100 | 100 | 30 | 90 | 50 | 10 | 20 | 50 | 30 | Plant response rating, Bermudagrass (bermudagrass; 31 g ai/ha, scale 0 to 100, 0 no effect, 100 complete control, last section of Table C (species set of preemergence test)): 80; Barnyardgrass plant response rating (0 to 100 scale) (barnyardgrass; [9]): 70; Cocklebur plant response rating (0 to 100 scale) (cocklebur; [9]): 10; Plant response rating, Surinam Grass (Surinam grass; 250 g ai/ha, scale 0-100): 100
CCN(CC)C(=O)c1cccc(NC(=O)c2cc(C(C)(C)C)nn2C)n1 [Compound 314] | 80 | 100 | 90 | 80 | 30 | 60 | 90 | 0 | 10 | 30 | 10 | 60 | 60 | 10 | 90 | 30 | 10 | 0 | 30 | 0 | Plant response rating, Pigweed (pigweed; [13]): 90; Plant response rating, Morningglory (morningglory; [13]): 40; Bermudagrass plant response rating (bermudagrass; Preemergence, 500 g ai/ha, scale 0 to 100, 0 no effect, 100 complete control): 90; Plant response rating (0 to 100 scale), Barnyardgrass (barnyardgrass; [14]): 10; Plant response rating (0 to 100 scale), Cocklebur (cocklebur; [14]): 0; Plant response rating, Surinam Grass (Surinam grass; 250 g ai/ha, scale 0-100): 0; Plant response rating, Surinam Grass (Surinam grass; [13]): 20
